Data as given in ChEMBL document CHEMBL4387763, “Discovery of novel biaryl sulfonamide based Mcl-1 inhibitors” (Bioorg Med Chem Lett, 2019).
Values after ≈ are worked out from the molar mass of the structure shown.

Test system: not listed separately
Test: Solubility of the compound
Assay type: physicochemical
Details: not given

| Compound | solubility [µM] |
| --- | --- |
| Cc1cc(C(=O)N[C@H](Cc2ccccc2)C(=O)O)sc1S(=O)(=O)Nc1cc(C(F)(F)F)ccc1Cl | 100 (≈ 54.7 µg/mL) |
| Cc1cc(C(=O)N[C@H](Cc2c[nH]c3ccccc23)C(=O)O)sc1S(=O)(=O)Nc1cc(C(F)(F)F)ccc1Cl | 100 (≈ 58.6 µg/mL) |

Test system: not listed separately
Test: Stability in mouse liver microsomes assessed as parent compound remaining after 30 mins
Assay type: ADME, Microsome
Details: read-out: Stability

| Compound | remaining at 0.5 h [%] |
| --- | --- |
| Cc1cc(C(=O)N[C@H](Cc2ccccc2)C(=O)NS(=O)(=O)c2ccccc2)sc1S(=O)(=O)Nc1cc(C(F)(F)F)ccc1Cl | 81 |
| Cc1cc(C(=O)N[C@H](Cc2ccccc2)C(=O)NS(C)(=O)=O)sc1S(=O)(=O)Nc1cc(C(F)(F)F)ccc1Cl | 91 |
| Cc1cc(C(=O)N[C@H](Cc2ccccc2)C(=O)O)sc1S(=O)(=O)Nc1cc(C(F)(F)F)ccc1Cl | 95 |
| Cc1cc(C(=O)N[C@H](Cc2c[nH]c3ccccc23)C(=O)O)sc1S(=O)(=O)Nc1cc(C(F)(F)F)ccc1Cl | 94 |

Test system: not listed separately
Test: Stability in human liver microsomes assessed as parent compound remaining after 30 mins
Assay type: ADME, Microsome
Details: read-out: Stability

| Compound | remaining at 0.5 h [%] |
| --- | --- |
| Cc1cc(C(=O)N[C@H](Cc2ccccc2)C(=O)NS(=O)(=O)c2ccccc2)sc1S(=O)(=O)Nc1cc(C(F)(F)F)ccc1Cl | 74 |
| Cc1cc(C(=O)N[C@H](Cc2ccccc2)C(=O)NS(C)(=O)=O)sc1S(=O)(=O)Nc1cc(C(F)(F)F)ccc1Cl | 99 |
| Cc1cc(C(=O)N[C@H](Cc2ccccc2)C(=O)O)sc1S(=O)(=O)Nc1cc(C(F)(F)F)ccc1Cl | 66 |
| Cc1cc(C(=O)N[C@H](Cc2c[nH]c3ccccc23)C(=O)O)sc1S(=O)(=O)Nc1cc(C(F)(F)F)ccc1Cl | 98 |

Target: T1, Induced myeloid leukemia cell differentiation protein Mcl-1 (Homo sapiens, UniProt Q07820)
T1 sequence (Q07820 whole entry, the tested form may be a part): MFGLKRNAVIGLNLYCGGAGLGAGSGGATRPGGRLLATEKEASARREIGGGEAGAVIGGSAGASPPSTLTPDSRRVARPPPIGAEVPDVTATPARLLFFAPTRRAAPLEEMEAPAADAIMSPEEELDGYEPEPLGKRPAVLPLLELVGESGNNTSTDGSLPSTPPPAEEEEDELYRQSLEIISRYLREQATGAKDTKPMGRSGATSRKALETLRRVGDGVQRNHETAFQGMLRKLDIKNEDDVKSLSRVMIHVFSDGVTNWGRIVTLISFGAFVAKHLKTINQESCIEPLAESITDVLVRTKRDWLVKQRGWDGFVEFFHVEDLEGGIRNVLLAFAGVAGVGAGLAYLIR
Test: Binding affinity to biotin-labelled TEV-fused GST-tagged MCl-1 (unknown origin) by surface plasmon resonance analysis
Details: not given

| Compound | Kd [µM] |
| --- | --- |
| Cc1cc(C(=O)NC[C@@H](O)c2ccccc2)sc1S(=O)(=O)Nc1cc(C(F)(F)F)ccc1Cl | 0.165 |

Target: T1, Induced myeloid leukemia cell differentiation protein Mcl-1
Test: Inhibition of […]-labelled BID binding to human MCl-1 (171 to 327 residues) expressed in Escherichia coli BL21 (DE3) by fluorescence polarization assay
Details: not given

| Compound | IC50 [µM] |
| --- | --- |
| Cc1cc2c(cc1S(=O)(=O)Nc1cc(C(F)(F)F)ccc1Cl)OCC(=O)N2 | 1.8 |
| Cc1cc(C(=O)N[C@H](Cc2ccccc2)C(=O)NS(=O)(=O)c2ccccc2)sc1S(=O)(=O)Nc1cc(C(F)(F)F)ccc1Cl | 0.053 |
| CN(C)c1ccc(S(=O)(=O)N(C)C)cc1NS(=O)(=O)c1cc(Cl)ccc1Cl | 18 |
| Cc1cc(C(=O)N[C@@H](C(=O)O)C(C)C)sc1S(=O)(=O)Nc1cc(C(F)(F)F)ccc1Cl | 0.66 |
| Cc1cc(C(=O)NCCc2ccccc2)sc1S(=O)(=O)Nc1cc(C(F)(F)F)ccc1Cl | 0.81 |
| O=S(=O)(Nc1cc(Cl)ccc1Cl)c1cc(Cl)ccc1Cl | 11 |
| Cc1cc(C(=O)NC(Cc2ccccc2)Cc2ccccc2)sc1S(=O)(=O)Nc1cc(C(F)(F)F)ccc1Cl | 7.1 |
| O=S(=O)(Nc1cc(C(F)(F)F)ccc1Cl)c1ccccc1Cl | 13 |
| Cc1cc(C(=O)N[C@H](Cc2ccccc2)C(=O)NS(C)(=O)=O)sc1S(=O)(=O)Nc1cc(C(F)(F)F)ccc1Cl | 0.073 |
| Cc1cc(C(=O)N[C@H](Cc2ccc(-c3ccccc3)cc2)C(=O)O)sc1S(=O)(=O)Nc1cc(C(F)(F)F)ccc1Cl | 2.8 |
| Cc1ccc(F)cc1S(=O)(=O)Nc1cc(C(F)(F)F)ccc1Cl | 5.5 |
| Cc1cc(C(=O)NC2CCc3ccccc3C2)sc1S(=O)(=O)Nc1cc(C(F)(F)F)ccc1Cl (stereo unspecified) | 4.2 |
| Cc1cc(C(=O)NCc2nnn[nH]2)sc1S(=O)(=O)Nc1cc(C(F)(F)F)ccc1Cl | 0.42 |
| Cc1cc(C(=O)NCCc2ccc(Oc3ccccc3)cc2)sc1S(=O)(=O)Nc1cc(C(F)(F)F)ccc1Cl | 7 |
| COC(=O)c1cc(C)c(S(=O)(=O)Nc2cc(C(F)(F)F)ccc2Cl)s1 | 1.9 |
| O=S(=O)(Nc1cccc(C(F)(F)F)c1)c1cc(Cl)ccc1Cl | > 25 |
| O=S(=O)(Nc1cc(C(F)(F)F)ccc1Cl)c1c(Cl)cccc1Cl | 7.3 |
| Cc1ccc(S(=O)(=O)Nc2cc(C(F)(F)F)ccc2Cl)c(C)c1 | 12 |
| O=S(=O)(Nc1ccn[nH]1)c1cc(Cl)ccc1Cl | > 25 |
| Cc1cc(C(=O)NCC(=O)O)sc1S(=O)(=O)Nc1cc(C(F)(F)F)ccc1Cl | 0.47 |
| CC(C)c1cccc(NS(=O)(=O)c2cc(Cl)ccc2Cl)c1 | > 25 |
| O=S(=O)(Nc1cc(C(F)(F)F)ccc1Cl)c1sc(Cl)cc1Cl | 8.6 |
| O=S(=O)(Nc1ccc2ccccc2c1)c1cc(Cl)ccc1Cl | > 25 |
| Cc1cc(C(=O)NC2(C(=O)O)CC2)sc1S(=O)(=O)Nc1cc(C(F)(F)F)ccc1Cl | 1.5 |
| Cc1cc(C(=O)N[C@H](COCc2ccccc2)C(=O)O)sc1S(=O)(=O)Nc1cc(C(F)(F)F)ccc1Cl | 0.31 |
| Cc1cc(C(=O)N[C@H](Cc2cccnc2)C(=O)O)sc1S(=O)(=O)Nc1cc(C(F)(F)F)ccc1Cl | 0.38 |
| Cc1cc(C(=O)N[C@H](Cc2ccccc2)c2nnn[nH]2)sc1S(=O)(=O)Nc1cc(C(F)(F)F)ccc1Cl | 0.153 |
| Cc1cc(C(=O)N[C@@H](Cc2ccccc2)C(=O)O)sc1S(=O)(=O)Nc1cc(C(F)(F)F)ccc1Cl | 0.75 |

| Compound | IC50 [µM] |
| --- | --- |
| Cc1cc(C(=O)N[C@H](Cc2ccccc2)C(=O)NCCO)sc1S(=O)(=O)Nc1cc(C(F)(F)F)ccc1Cl | 0.112 |
| Cc1cc(C(=O)N2CCCC[C@H]2C(=O)O)sc1S(=O)(=O)Nc1cc(C(F)(F)F)ccc1Cl | 1 |
| Cc1nn(C)c(Cl)c1S(=O)(=O)Nc1cc(C(F)(F)F)ccc1Cl | 23 |
| Cc1cc(C(=O)N[C@H](Cc2ccccc2)C(=O)O)sc1S(=O)(=O)Nc1cc(C(F)(F)F)ccc1Cl | 0.181 |
| Cc1cc(C(=O)N[C@H](CCc2ccccc2)C(=O)O)sc1S(=O)(=O)Nc1cc(C(F)(F)F)ccc1Cl | 0.82 |
| Cn1ccnc1S(=O)(=O)Nc1cc(C(F)(F)F)ccc1Cl | 17 |
| Cc1cc(C(=O)N2CCN(C(=O)OC(C)(C)C)C[C@H]2C(=O)O)sc1S(=O)(=O)Nc1cc(C(F)(F)F)ccc1Cl | 0.63 |
| Cc1cc(C(=O)NC(Cc2ccccc2)C(=O)O)sc1S(=O)(=O)Nc1cc(C(F)(F)F)ccc1Cl (stereo unspecified) | 0.3 |
| Cc1cc(C(=O)NS(C)(=O)=O)sc1S(=O)(=O)Nc1cc(C(F)(F)F)ccc1Cl | 1.07 |
| Cc1cc(C(=O)N[C@H](Cc2c[nH]cn2)C(=O)O)sc1S(=O)(=O)Nc1cc(C(F)(F)F)ccc1Cl | 0.92 |
| O=C(Nn1cnnc1)c1cccc(S(=O)(=O)Nc2cc(C(F)(F)F)ccc2Cl)c1 | 19 |
| O=S(=O)(Nc1ccccc1Cl)c1cc(Cl)ccc1Cl | > 25 |
| Cc1cc(C(=O)N[C@H](Cc2c[nH]c3ccccc23)C(=O)O)sc1S(=O)(=O)Nc1cc(C(F)(F)F)ccc1Cl | 0.21 |
| O=S(=O)(Nc1cc(C(F)(F)F)ccc1Cl)c1cc(Cl)ccc1Cl | 0.149 to 3.1 |
| Cc1cc(C(=O)N[C@H](Cc2ccccc2)C(N)=O)sc1S(=O)(=O)Nc1cc(C(F)(F)F)ccc1Cl | 0.153 |
| O=S(=O)(Nc1ccc(Cl)cc1Cl)c1cc(Cl)ccc1Cl | 21 |
| Cc1cc(C(=O)NCCC(=O)O)sc1S(=O)(=O)Nc1cc(C(F)(F)F)ccc1Cl | 3.5 |
| Cc1cc(C(=O)NC[C@@H](O)c2ccccc2)sc1S(=O)(=O)Nc1cc(C(F)(F)F)ccc1Cl | 0.149 |
| Cc1cc(F)ccc1S(=O)(=O)Nc1cc(C(F)(F)F)ccc1Cl | 10 |
| COC(=O)[C@@H](Cc1ccccc1)NC(=O)c1cc(C)c(S(=O)(=O)Nc2cc(C(F)(F)F)ccc2Cl)s1 | 0.145 |
| Cc1cc(C(=O)N(CCc2ccccc2)CC(=O)O)sc1S(=O)(=O)Nc1cc(C(F)(F)F)ccc1Cl | 0.69 |
| Cc1cc(C(=O)N[C@H](C)C(=O)O)sc1S(=O)(=O)Nc1cc(C(F)(F)F)ccc1Cl | 1.5 |
| O=S(=O)(Nc1cc(Cl)c(Cl)cc1Cl)c1cc(Cl)ccc1Cl | 9 |
| Cc1cc(C(=O)NC[C@H](O)c2ccccc2)sc1S(=O)(=O)Nc1cc(C(F)(F)F)ccc1Cl | 0.47 |
| Cc1ccccc1S(=O)(=O)Nc1cc(C(F)(F)F)ccc1Cl | 11 |
| Cc1cc(C(=O)NC(Cc2ccccc2)c2ccccc2)sc1S(=O)(=O)Nc1cc(C(F)(F)F)ccc1Cl (stereo unspecified) | 7.1 |
| Cc1ccc([N+](=O)[O-])cc1NS(=O)(=O)c1cc(Cl)ccc1Cl | 20 |
